# Assays:
# γH2AX = test: p-γH2AX immunofluorescent staining of FaDu cells; type: cell-based, human; conditions: 1 μM BrdU with 1 Gy of 14 keV NR
# Experimental: Referring to FIGS. 23A and 23B, p-γH2AX immunofluorescent staining for evaluating DNA damages induced by BrdU, RS2000, BrdU with RS2000, NR, and NR with BrdU, are provided in accordance with exemplary embodiments of the present disclosure. γH2AX is the histone H2AX protein with phosphorylated amino acid on serine 139. γH2AX is a specific marker for DNA DSBs. FaDu cells are seeded on a chamber slides, and are fixed with −20° C., 100% ethanol under room temperature for 15 minutes. The fixed chamber slides are washed with PBS, and permeablized with 0.1% Triton X-100 for 10 minutes. Then, the chamber slides are blocked with 5% milk in PBS for 30 minutes at room temperature, and incubated with primary antibody (anti-γH2AX) overnight at 4° C. FaDu cells in the chamber slides are then washed with PBS, and incubated with secondary antibody which is conjugated by a fluorescent dye for 1 hour at room temperature. The nuclei were countestained with 5 μg/ml of DAPI (4′,6-diamidino-2-phenylindole). The stained FaDu cells are then being mounted and subjected to microscopic examination with a confocal laser scanning microscope (ZEISS LSM780). The number of p-γH2AX are quantified using Metamorph software. […] FIG. 23B is a quantitative result of FIG. 23A. […]
# FaDu-RFP+ cells = test: in vivo IdU incorporation rate in FaDu-RFP+ solid tumors (flow cytometry); design: species or system mouse
# Description: An injection concentration of IdU is selected based on a flow cytometry analysis on the incorporation rate of IdU in tumor cells. Referring to FIG. 13A, a schematic diagram of an in vivo animal experiment for determining an injection concentration of IdU is provided in accordance with an exemplary embodiment of the present disclosure. FaDu cells are marked with RFP (red fluorescent protein) and […]. The malignant solid tumors formed by FaDu-RFP+ cells on the tumorigenic mouse are injected with different concentrations of IdU: 100 μg, 50 μg, 20 μg, 10 μg, 5 μg, or 2 μg per 100 μl PBS. 4 hours later, the tumorigenic mouse are sacrificed and the solid tumors are isolated to single cells. The single cells from the solid tumors are then subjected to antibody staining and flow cytometry analyses. Referring to FIG. 13B, a flow cytometry result of the experiments described by FIG. 13A, is provided in accordance with an exemplary embodiment of the present disclosure. The horizontal axis represents the RFP signals, and the vertical axis represents the GFP signals. […] Only 6.232% of FaDu cells are detected with GFP in the left panel of FIG. 13B. The right panel of FIG. 13B are FaDu cells treated with 50 μg of IdU, an area 132 is FaDu cells detected with GFP signals. 19.088% of FaDu cells are detected with GFP signals in the right panel of FIG. 13B. […]
SMILES,γH2AX expression (immunofluorescent staining) (γH2AX),"IdU incorporation rate among injected concentrations (FaDu-RFP+ cells; 50 μg IdU/100 μl PBS versus 100, 20, 10, 5, 2 μg)","FaDu cells detected with GFP signals (IdU incorporation) (FaDu-RFP+ cells; 50 μg of IdU injected into tumor, 4 hours) [%]"
"O=c1[nH]c(=O)n([C@H]2C[C@H](O)[C@@H](CO)O2)cc1Br [BrdU, bromodeoxyuridine]",significant amount of γH2AX expression,,
"O=c1[nH]c(=O)n([C@H]2C[C@H](O)[C@@H](CO)O2)cc1I [IdU, iododeoxyuridine]",,best IdU incorporation rate,19.088

# Source: patent publication US20210401867A1, “PHOTOSENSITIZERS AND METHOD OF TREATING CANCER USING THE SAME” (Cheng-Wen Wu, priority 2018, published 2021)
